# Measured values: patent US11312727B1, “Macrocyclic flu endonuclease inhibitors” (Janssen BioPharma, Inc., priority 2018, dated 2022)
# Assays:
# [1] = in vitro; conditions: human, CC50, uninfected A549 cells, CellTiter-Glo
# [2] = test system: Influenza strain A549 A/WSN/33 (H1N1); assay: microbe, parasite or virus in culture; type: cell-based; conditions: Influenza A virus, A549, 20 h, A549 cells, influenza A/WSN/33 (H1N1), 20 hours incubation; read-out: A549_A(H1N1) EC50
Structure (SMILES),CC50 [1] [nM],EC50 [2] [nM]
"O=C1CCN2CN(C(c3ccccc3)c3ccccc3CN1)n1ccc(=O)c(O)c1C2=O (stereo not shown) [Compound 18, 12-hydroxy-18-phenyl-5,8,9,18-tetrahydro-10,17-methanobenzo[k]pyrido[1,2-b][1,2,5,9]tetraazacyclotridecine-7,11,13(6H)-trione]",> 200000,7910
"O=C1c2c(O)c(=O)ccn2N2CN1C/C=C\CCOc1ccccc1C2c1ccccc1 (stereo not shown) [Compound 19, (*Z)-15-hydroxy-2-phenyl-12,13,14,16-tetrahydro-11H-4-oxa-1(1,3)-pyrido[2,1-f][1,2,4]triazina-3(1,2)-benzenacyclononaphan-7-ene-14,16-dione]",> 2000,260
"O=C1c2c(O)c(=O)ccn2N2CN1CCC/C=C\c1cccc3c1[C@H]2c1ccccc1CC3 [Compound 31B, (19bR,Z)-4-hydroxy-8,9,15,19b-tetrahydro-7H,14H-13,12-(epiprop[1]en[1]yl[3]ylidene)-6,20-methanobenzo[3,4]cyclohepta[1,2-1]pyrido[1,2-b][1,2,5]triazacyclotridecine-3,5-dione]",> 2000,4
"CC[C@@H]1/C=C/COc2ccccc2[C@H](c2ccccc2)N2CN1C(=O)c1c(O)c(=O)ccn12 [Compound 39AA, (9R,18S,E)-9-ethyl-12-hydroxy-18-phenyl-6,9-dihydro-18H-10,17-methanobenzo[b]pyrido[1,2-f][1]oxa[5,6,9]triazacyclotridecine-11,13-dione]",> 2000,> 1000
"CC[C@H]1/C=C/COc2ccccc2[C@H](c2ccccc2)N2CN1C(=O)c1c(O)c(=O)ccn12 [Compound 39AB, (9S,18S,E)-9-ethyl-12-hydroxy-18-phenyl-6,9-dihydro-18H-10,17-methanobenzo[b]pyrido[1,2-f][1]oxa[5,6,9]triazacyclotridecine-11,13-dione]",> 2000,> 1000
"CC[C@@H]1/C=C/COc2ccccc2[C@@H](c2ccccc2)N2CN1C(=O)c1c(O)c(=O)ccn12 [Compound 39BA, (9R,18R,E)-9-ethyl-12-hydroxy-18-phenyl-6,9-dihydro-18H-10,17-methanobenzo[b]pyrido[1,2-f][1]oxa[5,6,9]triazacyclotridecine-11,13-dione]",> 200,6
"CC[C@H]1/C=C/COc2ccccc2[C@@H](c2ccccc2)N2CN1C(=O)c1c(O)c(=O)ccn12 [Compound 39BB, (9S,18R,E)-9-ethyl-12-hydroxy-18-phenyl-6,9-dihydro-18H-10,17-methanobenzo[b]pyrido[1,2-f][1]oxa[5,6,9]triazacyclotridecine-11,13-dione]",> 2000,7
"O=C1c2c(O)c(=O)ccn2N2CN1C/C=C/CCc1ccccc1[C@H]2c1ccccn1 [Compound 43A, (17S,E)-4-hydroxy-16-(pyridin-2-yl)-7,10,11,16-tetrahydro-6,17-methanobenzo[k]pyrido[1,2-b][1,2,5]triazacyclotridecine-3,5-dione]",> 2000,22
"O=C1c2c(O)c(=O)ccn2N2CN1C/C=C/CCc1ccccc1[C@@H]2c1ccccn1 [Compound 43B, (17R,E)-4-hydroxy-16-(pyridin-2-yl)-7,10,11,16-tetrahydro-6,17-methanobenzo[k]pyrido[1,2-b][1,2,5]triazacyclotridecine-3,5-dione]",> 2000,> 1000
"O=C1c2c(O)c(=O)ccn2N2CN1C/C=C\COc1cccc3c1[C@@H]2c1ccccc1SC3 [Compound 46A, (21R,Z)-16-hydroxy-6,10,13,21a-tetrahydro-7,8-(epiprop[1]en[1]yl[3]ylidene)-14,21-methanobenzo[6,7]thiepino[4,5-c]pyrido[1,2-f][1]oxa[5,6,9]triazacyclotridecine-15,17-dione]",> 2000,64
"O=C1c2c(O)c(=O)ccn2N2CN1C/C=C\COc1cccc3c1[C@H]2c1ccccc1SC3 [Compound 46B, (21S,Z)-16-hydroxy-6,10,13,21a-tetrahydro-7,8-(epiprop[1]en[1]yl[3]ylidene)-14,21-methanobenzo[6,7]thiepino[4,5-c]pyrido[1,2-f][1]oxa[5,6,9]triazacyclotridecine-15,17-dione]",> 100,3
"O=C1c2c(O)c(=O)ccn2N2CN1C/C=C/COc1cccc3c1[C@@H]2c1ccccc1SC3 [Compound 46C, (17R,E)-12-hydroxy-2,6,9,17a-tetrahydro-3,4-(epiprop[1]en[1]yl[3]ylidene)-10,17-methanobenzo[6,7]thiepino[4,5-c]pyrido[1,2-f][1]oxa[5,6,9]triazacyclotridecine-11,13-dione]",> 2000,330
"O=C1c2c(O)c(=O)ccn2N2CN1C/C=C/COc1cccc3c1[C@H]2c1ccccc1SC3 [Compound 46D, (17S,E)-12-hydroxy-2,6,9,17a-tetrahydro-3,4-(epiprop[1]en[1]yl[3]ylidene)-10,17-methanobenzo[6,7]thiepino[4,5-c]pyrido[1,2-f][1]oxa[5,6,9]triazacyclotridecine-11,13-dione]",> 200,1
O=C1c2c(O)c(=O)ccn2N2CN1CCCCCOc1cccc3c1C2c1ccccc1SC3 (stereo not shown) [Compound 48],> 2000,32
"CN1Cc2ccccc2C(c2ccccc2)N2CN(CCC1=O)C(=O)c1c(O)c(=O)ccn12 (stereo not shown) [Compound 50, 12-hydroxy-6-methyl-18-phenyl-5,8,9,18-tetrahydro-10,17-methanobenzo[k]pyrido[1,2-b][1,2,5,9]tetraazacyclotridecine-7,11,13(6H)-trione]",> 2000,> 1000
"O=C1c2c(O)c(=O)ccn2N2CN1CC/C=C\c1ccccc1C2c1ccccc1 (stereo not shown) [Compound 54, (*Z)-4-hydroxy-15-phenyl-8,15-dihydro-7H-6,16-methanobenzo[j]pyrido[1,2-b][1,2,5]triazacyclododecine-3,5-dione]",> 20000,117
"O=C1c2c(O)c(=O)ccn2N2CN1CCCCCCOc1ccccc1C2c1ccccc1 (stereo not shown) [Compound 55, 15-hydroxy-2-phenyl-12,13,14,16-tetrahydro-11H-4-oxa-1(1,3)-pyrido[2,1-f][1,2,4]triazina-3(1,2)-benzenacyclodecaphane-14,16-dione]",> 2000,880
"O=C1c2c(O)c(=O)ccn2N2CN1C/C=C\CCCOc1ccccc1C2c1ccccc1 (stereo not shown) [Compound 60, (*Z)-15-hydroxy-2-phenyl-12,13,14,16-tetrahydro-11H-4-oxa-1(1,3)-pyrido[2,1-f][1,2,4]triazina-3(1,2)-benzenacyclodecaphan-8-ene-14,16-dione]",> 2000,> 1000
"O=C1c2c(O)c(=O)ccn2N2CN1CC/C=C\c1cccc3c1C2c1ccccc1CC3 (stereo not shown) [Compound 73, (11*Z)-6-hydroxy-10,16,17,21b-tetrahydro-9H-1,8-methanobenzo[4,5]cyclohepta[1,2,3-op]pyrido[1,2-c][2,3,6]benzotriazacyclododecine-5,7-dione]",> 2000,16
"O=C1c2c(O)c(=O)ccn2N2CN1C1(/C=C/COc3ccccc3[C@@H]2c2ccccc2)CC1 [Compound 79A, (18'S,E)-12′-hydroxy-18′-phenyl-6′H,18′H-spiro[cyclopropane-1,9′-[10,17]methanobenzo[b]pyrido[1,2-f][1]oxa[5,6,9]triazacyclotridecine]-11′,13′-dione]",> 1000,> 500
"O=C1c2c(O)c(=O)ccn2N2CN1C1(/C=C/COc3ccccc3[C@H]2c2ccccc2)CC1 [Compound 79B, (18′R,E)-12′-hydroxy-18′-phenyl-6′H,18′H-spiro[cyclopropane-1,9′-[10,17]methanobenzo[b]pyrido[1,2-f][1]oxa[5,6,9]triazacyclotridecine]-11′,13′-dione]",> 1000,6
"O=C1c2c(O)c(=O)ccn2N2CN1C/C=C/COc1cccc3c1[C@H]2c1ccccc1S(=O)(=O)C3 [Compound 82, (17aS,E)-12-hydroxy-2,6,9,17a-tetrahydro-3,4-(epiprop[1]en[1]yl[3]ylidene)-10,17-methanobenzo[6,7]thiepino[4,5-c]pyrido[1,2-f][1]oxa[5,6,9]triazacyclotridecine-11,13-dione 1,1-dioxide]",> 1000,71
"O=C1c2c(O)c(=O)ccn2N2CN1C[C@H]1C[C@@H]1COc1cccc3c1[C@H]2c1ccccc1SC3 [Compound 87BA, (1aS,11bS,20aS)-17-hydroxy-1a,2,6,11b,20,20a-hexahydro-1H-5,4-(epiprop[1]en[1]yl[3]ylidene)-12,19-methanobenzo[6,7]thiepino[4,5-c]cyclopropa[k]pyrido[1,2-f][1]oxa[5,6,9]triazacyclotridecine-16,18-dione]",> 200,4
"O=C1c2c(O)c(=O)ccn2N2CN1C[C@@H]1C[C@H]1COc1cccc3c1[C@H]2c1ccccc1SC3 [Compound 87BB, (1aR,11bS,20aR)-17-hydroxy-1a,2,6,11b,20,20a-hexahydro-1H-5,4-(epiprop[1]en[1]yl[3]ylidene)-12,19-methanobenzo[6,7]thiepino[4,5-c]cyclopropa[k]pyrido[1,2-f][1]oxa[5,6,9]triazacyclotridecine-16,18-dione]",> 200,4
"CC[C@H]1/C=C\COc2cccc3c2[C@H](c2ccccc2SC3)N2CN1C(=O)c1c(O)c(=O)ccn12 [Compound 92AA, (13S,21aR,Z)-13-ethyl-16-hydroxy-6,10,13,21a-tetrahydro-7,8-(epiprop[1]en[1]yl[3]ylidene)-14,21-methanobenzo[6,7]thiepino[4,5-c]pyrido[1,2-f][1]oxa[5,6,9]triazacyclotridecine-15,17-dione]",> 1000,108
"CC[C@@H]1/C=C/COc2cccc3c2[C@H](c2ccccc2SC3)N2CN1C(=O)c1c(O)c(=O)ccn12 [Compound 92AB, (9R,17aR,E)-9-ethyl-12-hydroxy-2,6,9,17a-tetrahydro-3,4-(epiprop[1]en[1]yl[3]ylidene)-10,17-methanobenzo[6,7]thiepino[4,5-c]pyrido[1,2-f][1]oxa[5,6,9]triazacyclotridecine-11,13-dione]",> 1000,> 500
